± gives the expanded uncertainty stated by the source.
Test: mn = molality of the nth substance listed, in mol/kg
Settings: Liquid; for viscosity: Falling or rolling sphere viscometry; for mass density: Vibrating tube method
[1] = 303.15 K, 118.4 kPa, m2 = 0.103
[2] = 303.15 K, 191.2 kPa, m2 = 0.174
[3] = 303.15 K, 316.5 kPa, m2 = 0.284
[4] = 303.15 K, 495.3 kPa, m2 = 0.438
[5] = 303.15 K, 648.5 kPa, m2 = 0.598
[6] = 303.15 K, 777.7 kPa, m2 = 0.709
[7] = 303.15 K, 1063.8 kPa, m2 = 1.001
[8] = 303.15 K, 1253.8 kPa, m2 = 1.205
[9] = 303.15 K, 1447.1 kPa, m2 = 1.423
[10] = 313.15 K, 121.8 kPa, m2 = 0.0954
[11] = 313.15 K, 200.8 kPa, m2 = 0.1579
[12] = 313.15 K, 324.9 kPa, m2 = 0.2571
[13] = 313.15 K, 732.9 kPa, m2 = 0.5763
[14] = 313.15 K, 855.1 kPa, m2 = 0.6803
[15] = 313.15 K, 1169.6 kPa, m2 = 0.9594
[16] = 313.15 K, 1383.5 kPa, m2 = 1.159
[17] = 313.15 K, 1644.1 kPa, m2 = 1.385
[18] = 323.15 K, 141.1 kPa, m2 = 0.093
[19] = 323.15 K, 238.4 kPa, m2 = 0.163
[20] = 323.15 K, 392.8 kPa, m2 = 0.266
[21] = 323.15 K, 817.7 kPa, m2 = 0.557
[22] = 323.15 K, 993.9 kPa, m2 = 0.692
[23] = 323.15 K, 1413.4 kPa, m2 = 1.019
[24] = 323.15 K, 1706.6 kPa, m2 = 1.217
[25] = 323.15 K, 2006.9 kPa, m2 = 1.472
[26] = 333.15 K, 153.2 kPa, m2 = 0.091
[27] = 333.15 K, 263.6 kPa, m2 = 0.158
[28] = 333.15 K, 436.2 kPa, m2 = 0.257
[29] = 333.15 K, 694.6 kPa, m2 = 0.415
[30] = 333.15 K, 1035.8 kPa, m2 = 0.626
[31] = 333.15 K, 1456.6 kPa, m2 = 0.886
[32] = 333.15 K, 1761.6 kPa, m2 = 1.061
[33] = 343.15 K, 168.2 kPa, m2 = 0.087
[34] = 343.15 K, 296.7 kPa, m2 = 0.155
[35] = 343.15 K, 477.6 kPa, m2 = 0.249
[36] = 343.15 K, 758.5 kPa, m2 = 0.402
[37] = 343.15 K, 978.6 kPa, m2 = 0.526
[38] = 343.15 K, 1118.9 kPa, m2 = 0.603
[39] = 343.15 K, 1538.6 kPa, m2 = 0.853
[40] = 343.15 K, 1852.6 kPa, m2 = 1.011
[41] = 343.15 K, 2326.1 kPa, m2 = 1.305
[42] = 353.15 K, 509.4 kPa, m2 = 0.232
[43] = 353.15 K, 1248.9 kPa, m2 = 0.581
[44] = 353.15 K, 1720.3 kPa, m2 = 0.822
[45] = 353.15 K, 1911.1 kPa, m2 = 0.924
[46] = 363.15 K, 188.8 kPa, m2 = 0.076
[47] = 363.15 K, 327.8 kPa, m2 = 0.133
[48] = 363.15 K, 902.8 kPa, m2 = 0.366
[49] = 363.15 K, 1404.2 kPa, m2 = 0.573

O=S1(=O)CCCC1 [sulfolane] + O=C=O
viscosity [1]: 9.99 ± 0.26 mPa·s | mass density [1]: 1260 ± 1 kg/m3 | viscosity [2]: 9.8 ± 0.26 mPa·s | mass density [2]: 1259 ± 1 kg/m3 | viscosity [3]: 9.36 ± 0.25 mPa·s | mass density [3]: 1258 ± 1 kg/m3 | viscosity [4]: 8.97 ± 0.24 mPa·s | mass density [4]: 1256 ± 1 kg/m3 | viscosity [5]: 8.34 ± 0.23 mPa·s | mass density [5]: 1255 ± 1 kg/m3 | viscosity [6]: 7.85 ± 0.23 mPa·s | mass density [6]: 1254 ± 1 kg/m3 | viscosity [7]: 7 ± 0.21 mPa·s | mass density [7]: 1253 ± 1 kg/m3 | viscosity [8]: 6.48 ± 0.2 mPa·s | mass density [8]: 1252 ± 1 kg/m3 | viscosity [9]: 5.96 ± 0.19 mPa·s | mass density [9]: 1252 ± 1 kg/m3 | viscosity [10]: 7.98 ± 0.2 mPa·s | mass density [10]: 1252 ± 1 kg/m3 | viscosity [11]: 7.73 ± 0.2 mPa·s | mass density [11]: 1250 ± 1 kg/m3 | viscosity [12]: 7.61 ± 0.19 mPa·s | mass density [12]: 1249 ± 1 kg/m3 | viscosity (313.15 K, 526 kPa, m2 = 0.4296): 7.13 ± 0.18 mPa·s | mass density (313.15 K, 526 kPa, m2 = 0.4296): 1247 ± 1 kg/m3 | viscosity [13]: 6.88 ± 0.18 mPa·s | mass density [13]: 1246 ± 1 kg/m3 | viscosity [14]: 6.36 ± 0.17 mPa·s | mass density [14]: 1245 ± 1 kg/m3 | viscosity [15]: 5.81 ± 0.16 mPa·s | mass density [15]: 1243 ± 1 kg/m3 | viscosity [16]: 5.28 ± 0.15 mPa·s | mass density [16]: 1243 ± 1 kg/m3 | viscosity [17]: 4.99 ± 0.14 mPa·s | mass density [17]: 1242 ± 1 kg/m3 | viscosity [18]: 6.21 ± 0.16 mPa·s | mass density [18]: 1242 ± 1 kg/m3 | viscosity [19]: 6.1 ± 0.16 mPa·s | mass density [19]: 1241 ± 1 kg/m3 | viscosity [20]: 5.97 ± 0.15 mPa·s | mass density [20]: 1239 ± 1 kg/m3 | viscosity (323.15 K, 632 kPa, m2 = 0.417): 5.69 ± 0.14 mPa·s | mass density (323.15 K, 632 kPa, m2 = 0.417): 1237 ± 1 kg/m3 | viscosity [21]: 5.46 ± 0.14 mPa·s | mass density [21]: 1235 ± 1 kg/m3 | viscosity [22]: 5.16 ± 0.13 mPa·s | mass density [22]: 1234 ± 1 kg/m3 | viscosity [23]: 4.68 ± 0.12 mPa·s | mass density [23]: 1232 ± 1 kg/m3 | viscosity [24]: 4.28 ± 0.11 mPa·s | mass density [24]: 1231 ± 1 kg/m3 | viscosity [25]: 3.98 ± 0.1 mPa·s | mass density [25]: 1231 ± 1 kg/m3 | viscosity [26]: 5.14 ± 0.13 mPa·s | mass density [26]: 1233 ± 1 kg/m3 | viscosity [27]: 5.09 ± 0.13 mPa·s | mass density [27]: 1232 ± 1 kg/m3 | viscosity [28]: 4.92 ± 0.13 mPa·s | mass density [28]: 1229 ± 1 kg/m3 | viscosity [29]: 4.5 ± 0.12 mPa·s | mass density [29]: 1226 ± 1 kg/m3 | viscosity (333.15 K, 896.4 kPa, m2 = 0.54): 4.4 ± 0.11 mPa·s | mass density (333.15 K, 896.4 kPa, m2 = 0.54): 1224 ± 1 kg/m3 | viscosity [30]: 4.27 ± 0.11 mPa·s | mass density [30]: 1223 ± 1 kg/m3 | viscosity [31]: 3.87 ± 0.1 mPa·s | mass density [31]: 1220 ± 1 kg/m3 | viscosity [32]: 3.69 ± 0.1 mPa·s | mass density [32]: 1218 ± 1 kg/m3 | viscosity [33]: 4.19 ± 0.11 mPa·s | mass density [33]: 1223 ± 1 kg/m3 | viscosity [34]: 4.06 ± 0.11 mPa·s | mass density [34]: 1222 ± 1 kg/m3 | viscosity [35]: 4 ± 0.11 mPa·s | mass density [35]: 1219 ± 1 kg/m3 | viscosity [36]: 3.61 ± 0.1 mPa·s | mass density [36]: 1216 ± 1 kg/m3 | viscosity [37]: 3.63 ± 0.1 mPa·s | mass density [37]: 1213 ± 1 kg/m3 | viscosity [38]: 3.46 ± 0.09 mPa·s | mass density [38]: 1211 ± 1 kg/m3 | viscosity [39]: 3.24 ± 0.08 mPa·s | mass density [39]: 1207 ± 1 kg/m3 | viscosity [40]: 3.02 ± 0.07 mPa·s | mass density [40]: 1205 ± 1 kg/m3 | viscosity [41]: 2.92 ± 0.07 mPa·s | mass density [41]: 1203 ± 1 kg/m3 | viscosity (353.15 K, 178.9 kPa, m2 = 0.08): 3.5 ± 0.09 mPa·s | mass density (353.15 K, 178.9 kPa, m2 = 0.08): 1215 ± 1 kg/m3 | viscosity (353.15 K, 305 kPa, m2 = 0.137): 3.27 ± 0.09 mPa·s | mass density (353.15 K, 305 kPa, m2 = 0.137): 1212 ± 1 kg/m3 | viscosity [42]: 3.14 ± 0.08 mPa·s | mass density [42]: 1209 ± 1 kg/m3 | viscosity (353.15 K, 828 kPa, m2 = 0.38): 3.16 ± 0.08 mPa·s | mass density (353.15 K, 828 kPa, m2 = 0.38): 1205 ± 1 kg/m3 | viscosity [43]: 3 ± 0.07 mPa·s | mass density [43]: 1199 ± 1 kg/m3 | viscosity [44]: 2.78 ± 0.06 mPa·s | mass density [44]: 1194 ± 1 kg/m3 | viscosity [45]: 2.62 ± 0.06 mPa·s | mass density [45]: 1192 ± 1 kg/m3 | viscosity [46]: 2.84 ± 0.07 mPa·s | mass density [46]: 1205 ± 1 kg/m3 | viscosity [47]: 2.74 ± 0.07 mPa·s | mass density [47]: 1203 ± 1 kg/m3 | viscosity (363.15 K, 555 kPa, m2 = 0.225): 2.64 ± 0.07 mPa·s | mass density (363.15 K, 555 kPa, m2 = 0.225): 1199 ± 1 kg/m3 | viscosity [48]: 2.49 ± 0.06 mPa·s | mass density [48]: 1194 ± 1 kg/m3 | viscosity [49]: 2.39 ± 0.06 mPa·s | mass density [49]: 1189 ± 1 kg/m3 | viscosity (363.15 K, 2015 kPa, m2 = 0.822): 2.24 ± 0.05 mPa·s | mass density (363.15 K, 2015 kPa, m2 = 0.822): 1185 ± 1 kg/m3
